Measurements: ChEMBL document CHEMBL1136480, “Successful shape-based virtual screening: the discovery of a potent inhibitor of the type I TGFbeta receptor kinase (TbetaRI)” (Bioorg Med Chem Lett, 2003)

Tested on: HepG2
Assay: Inhibition of TGF-beta-induced expression of PAI-luciferase reporter in HepG2 cells
Assay type: functional, cell-based
Details: Homo sapiens

In the case of `c1ccc(-c2n[nH]cc2-c2ccnc3ccccc23)nc1`, the IC50 is reported as 60 nM.
